# Target: T1, full-length human PKCι (Homo sapiens, UniProt P41743)
# T1 construct: Recombinant, full-length human PKCι expressed in Sf21 insect cells is also commercially available; purchased; host or cells: Sf21 insect cells
# T1 sequence (P41743 1-596): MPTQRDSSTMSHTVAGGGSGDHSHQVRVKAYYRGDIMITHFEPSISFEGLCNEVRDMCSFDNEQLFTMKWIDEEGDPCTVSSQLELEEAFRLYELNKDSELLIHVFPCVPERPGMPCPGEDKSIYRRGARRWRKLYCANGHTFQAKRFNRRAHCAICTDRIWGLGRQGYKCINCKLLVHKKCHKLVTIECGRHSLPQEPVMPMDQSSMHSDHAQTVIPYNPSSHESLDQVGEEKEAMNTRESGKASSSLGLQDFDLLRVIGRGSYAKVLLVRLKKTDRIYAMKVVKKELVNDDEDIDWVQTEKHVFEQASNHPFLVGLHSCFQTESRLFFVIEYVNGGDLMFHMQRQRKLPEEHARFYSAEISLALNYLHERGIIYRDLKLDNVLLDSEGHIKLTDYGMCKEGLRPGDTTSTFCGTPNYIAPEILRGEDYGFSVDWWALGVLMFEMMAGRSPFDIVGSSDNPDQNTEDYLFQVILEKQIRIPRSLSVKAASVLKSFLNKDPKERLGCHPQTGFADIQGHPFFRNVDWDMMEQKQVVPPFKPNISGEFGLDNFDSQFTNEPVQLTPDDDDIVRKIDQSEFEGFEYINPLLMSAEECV
# Assay: PKCι IC50 IMAP assay, full-length PKCι at 150 μM ATP
# Type: biochemical
# Conditions: read-out: IC50 in IMAP assay against full length PKCi at 150 μM ATP
# From the text: Assays are based on the ability of PKCι to phosphorylate a commercially available peptide substrate in vitro. The peptide substrate is FAM-PKCε pseudopeptide derived peptide, and comprises the amino acid sequence 5FAM-[…]-NH2. Recombinant, full-length human PKCι expressed in Sf21 insect cells is also commercially available. Recombinant, kinase-domain human PKCι is expressed and purified in-house.
# The procedure below explains how dose response curves for inhibitors of PKCι are obtained. The screen described is for a 384 well format but the assay can be adapted to 1536 or other formats as required.
# Compounds to be tested are dissolved in 100% DMSO. Compounds are diluted as required to give a final concentration of 4% DMSO (v/v) in the assay. 1 μl is plated into 384 well black low-binding flat bottomed assay plates which are used immediately. Dilutions and additions of compound to assay plates are carried out using Matrix WellMate® and Matrix PlateMate® Plus liquid handling systems.
# On the day of the screen PKCι/substrate working solution, and ATP working solution, are prepared in buffer containing 20 mM tris-HCl pH7.5, 10 mM MgCl2, 0.01% Triton X100, 250 μM EGTA and 1 mM DTT. The final concentration of PKCι used varies depending on the batch of protein but is typically 15 pM. The final concentration of peptide substrate in the assay is 100 nM. ATP is used at a final concentration of 150 μM or 25 μM in the assays containing full-length or kinase-domain PKCι respectively, which corresponds to five times or equal to the KM^APP for ATP for each enzyme, respectively. The final buffer concentration in the assay is 18 mM tris-HCl pH7.5, 9 mM MgCl2, 0.009% Triton X100, 225 μM EGTA and 0.9 mM DTT. Relevant controls are included, namely no compound and no enzyme. 5 μl PKCι/substrate working solution at 30 pM and 200 nM, respectively, is added to the wells, followed by 4 μl ATP working solution at 375 μM or 62.5 μM for full-length or kinase-domain PKCι respectively, using a 16 channel Matrix pipette. The reaction is allowed to incubate for 60 minutes at room temperature, before the reaction is stopped and developed by the addition of 20 μl IMAP™ development reagent (Molecular Devices). IMAP development reagent consists of 0.25% (v/v) IMAP progressive binding reagent, 17% (v/v) IMAP progressive binding buffer A and 3% (v/v) IMAP progressive binding buffer B. The plates are then incubated for 2 hours at room temperature before being read using an appropriate plate reader, for example a Molecular Devices HT Analyst or a BMG Pherastar. Plates are read using a fluorescence polarisation protocol with excitation at 485 nm and emission at 530 nm, and dichroic mirror at 505 nm.
# Percentage inhibition values are calculated from fluorescence polarisation values, using the no compound and no enzyme control values as 0% and 100% inhibition, respectively. IC50 determination is performed with ExcelFit software (IDBS) using curve fit 205. Z′ factors are determined for each plate tested and are all above 0.5.
row,SMILES,IC50 [nM]
1,"COc1cncc2nc(-c3ccnc(Nc4ccccc4)c3)nc(N3CCC(O)C(O)C3)c12 (single isomer, unassigned) [Example 456, (3S,4S)-1-[5-Methoxy-2-(2-phenylamino-pyridin-4-yl)-pyrido[3,4-d]pyrimidin-4-yl]-piperidine-3,4-diol or (3R,4R)-1-[5-Methoxy-2-(2-phenylamino-pyridin-4-yl)-pyrido[3,4-d]pyrimidin-4-yl]-piperidine-3,4-diol]",100 to 1000
2,"COc1cncc2nc(-c3ccnc(Nc4ccccc4)c3)nc(N3CCC(O)C(O)C3)c12 (single isomer, unassigned) [Example 457, (3R,4R)-1-[5-Methoxy-2-(2-phenylamino-pyridin-4-yl)-pyrido[3,4-d]pyrimidin-4-yl]-piperidine-3,4-diol or (3S,4S)-1-[5-Methoxy-2-(2-phenylamino-pyridin-4-yl)-pyrido[3,4-d]pyrimidin-4-yl]-piperidine-3,4-diol]",100 to 1000
3,"COc1cncc2nc(-c3ccnc(Nc4ccccc4)c3)nc(N3CCC(O)C(O)C3)c12 (single isomer, unassigned) [Example 463, (3R,4S)-1-[5-Methoxy-2-(2-phenylamino-pyridin-4-yl)-pyrido[3,4-d]pyrimidin-4-yl]-piperidine-3,4-diol or (3S,4R)-1-[5-Methoxy-2-(2-phenylamino-pyridin-4-yl)-pyrido[3,4-d]pyrimidin-4-yl]-piperidine-3,4-diol]",1000 to 10000
4,"COc1cncc2nc(-c3ccnc(Nc4ccccc4)c3)nc(N3CCC(O)C(O)C3)c12 (single isomer, unassigned) [Example 464, (3S,4R)-1-[5-Methoxy-2-(2-phenylamino-pyridin-4-yl)-pyrido[3,4-d]pyrimidin-4-yl]-piperidine-3,4-diol or (3R,4S)-1-[5-Methoxy-2-(2-phenylamino-pyridin-4-yl)-pyrido[3,4-d]pyrimidin-4-yl]-piperidine-3,4-diol]",100 to 1000
5,"CN1CCN(c2cccc(Nc3cc(-c4nc(N5CCC(O)C(O)C5)c5c(C6CC6)cncc5n4)ccn3)c2)CC1 (single isomer, unassigned) [Example 751, (3R,4S or 3R,4S)-1-(5-Cyclopropyl-2-{2-[3-(4-methyl-piperazin-1-yl)-phenylamino]-pyridin-4-yl}-pyrido[3,4-d]pyrimidin-4-yl)-piperidine-3,4-diol]",< 100
6,"CN1CCN(c2cccc(Nc3cc(-c4nc(N5CCC(O)C(O)C5)c5c(C6CC6)cncc5n4)ccn3)c2)CC1 (single isomer, unassigned) [Example 752, (3R,4S or 3R,4S)-1-(5-Cyclopropyl-2-{2-[3-(4-methyl-piperazin-1-yl)-phenylamino]-pyridin-4-yl}-pyrido[3,4-d]pyrimidin-4-yl)-piperidine-3,4-diol]",< 100
7,"CN1CCN(c2cccc(Nc3cc(-c4nc(N5CCC(O)C(O)C5)c5c(C6CC6)cncc5n4)ccn3)c2)CC1 (single isomer, unassigned) [Example 753, (3S,4S or 3R,4R)-1-(5-Cyclopropyl-2-{2-[3-(4-methyl-piperazin-1-yl)-phenylamino]-pyridin-4-yl}-pyrido[3,4-d]pyrimidin-4-yl)-piperidine-3,4-diol]",< 100
8,"CN1CCN(c2cccc(Nc3cc(-c4nc(N5CCC(O)C(O)C5)c5c(C6CC6)cncc5n4)ccn3)c2)CC1 (single isomer, unassigned) [Example 754, (3S,4S or 3R,4R)-1-(5-Cyclopropyl-2-{2-[3-(4-methyl-piperazin-1-yl)-phenylamino]-pyridin-4-yl}-pyrido[3,4-d]pyrimidin-4-yl)-piperidine-3,4-diol]",< 100
9,"CC(C)(O)C#Cc1nccc2c(NCC(N)Cc3ccccc3)nc(-c3ccncc3)nc12 (stereo in doubt) [Example 131, 4-(4-{[(2S)-2-amino-3-phenylpropyl]amino}-2-(pyridin-4-yl)pyrido[3,4-d]pyrimidin-8-yl)-2-methylbut-3-yn-2-ol]",< 100
10,"N#Cc1ccnc(Nc2cc(-c3nc(N4CC[C@H](O)[C@H](O)C4)c4c(C5CC5)cncc4n3)ccn2)c1 (stereo in doubt) [Example 487, 2-{4-[5-Cyclopropyl-4-((3R,4S)-3,4-dihydroxy-piperidin-1-yl)-pyrido[3,4-d]pyrimidin-2-yl]-pyridin-2-ylamino}-isonicotinonitrile]",< 100
11,"N#Cc1ccnc(Nc2cc(-c3nc(N4CC[C@@H](O)[C@@H](O)C4)c4c(C5CC5)cncc4n3)ccn2)c1 (stereo in doubt) [Example 488, 2-{4-[5-Cyclopropyl-4-((3S,4R)-3,4-dihydroxy-piperidin-1-yl)-pyrido[3,4-d]pyrimidin-2-yl]-pyridin-2-ylamino}-isonicotinonitrile]",100 to 1000
12,"FC(F)(F)c1cc2c(-c3nc(NC4CCNC4)c4c(C5CC5)cncc4n3)ccnc2[nH]1 (stereo in doubt) [Example 2069, [5-Cyclopropyl-2-(2-trifluoromethyl-1H-pyrrolo[2,3-b]pyridin-4-yl)-pyrido[3,4-d]pyrimidin-4-yl]-(R)-pyrrolidin-3-yl-amine]",< 100
13,"c1cc(-c2nc(N3CCNCC3)c3ccncc3n2)ccn1 [Example 1, 1-[2-(pyridin-4-yl)pyrido[3,4-d]pyrimidin-4-yl]piperazine]",100 to 1000
14,"COc1cncc2nc(-c3ccncc3)nc(N[C@@H]3CCNC3)c12 [Example 2, (5-Methoxy-2-pyridin-4-yl-pyrido[3,4-d]pyrimidin-4-yl)-(R)-pyrrolidin-3-yl-amine]",100 to 1000
15,"NCCNc1nc(-c2ccncc2)nc2cnccc12 [Example 3, N-(2-aminoethyl)-2-(pyridin-4-yl)-pyrido[3,4-d]-pyrimidin-4-amine]",10000 to 40000
16,"C[C@@H](N)CNc1nc(-c2ccncc2)nc2cnccc12 [Example 4, N-[(2R)-2-aminopropyl)-2-(pyridin-4-yl)pyrido[3,4-d]-pyrimidin-4-amine]",1000 to 10000
17,"C[C@H](N)CNc1nc(-c2ccncc2)nc2cnccc12 [Example 5, N-[(2S)-2-aminopropyl]-2-(pyridin-4-yl)pyrido[3,4-d]-pyrimidin-4-amine]",10000 to 40000
18,"N[C@H](CNc1nc(-c2ccncc2)nc2cnccc12)Cc1ccccc1 [Example 6, N-[(2S)-2-amino-3-phenylpropyl]-2-(pyridin-4-yl)pyrido[3,4-d]-pyrimidin-4-amine]",< 100
19,"c1cc(-c2nc(N[C@@H]3CCNC3)c3ccncc3n2)ccn1 [Example 7, (3R)-N-[2-(pyridin-4-yl)pyrido[3,4-d]-pyrimidin-4-yl]-pyrrolidin-3-amine]",< 100
20,"Fc1cnccc1-c1nc(N[C@@H]2CCNC2)c2ccncc2n1 [Example 8, (3R)-N-[2-(3-fluoropyridin-4-yl)-pyrido[3,4-d]-pyrimidin-4-yl]-pyrrolidin-3-amine]",100 to 1000
21,"COc1cncc2nc(-c3ccncc3)nc(NC[C@@H](N)Cc3ccccc3)c12 [Example 9, N-[(2S)-2-amino-3-phenylpropyl]-5-methoxy-2-(pyridin-4-yl)pyrido[3,4-d]-pyrimidin-4-amine]",< 100
22,"N[C@H](CNc1nc(-c2ccncc2F)nc2cnccc12)Cc1ccccc1 [Example 10, N-[(2S)-2-amino-3-phenylpropyl]-2-(3-fluoropyridin-4-yl)pyrido[3,4-d]-pyrimidin-4-amine]",100 to 1000

# — patent US9914730B2, “Azaquinazoline inhibitors of Atypical protein Kinase C” (Ignyta, Inc., priority 2012, dated 2018)
